US3931140A, “(H-gly-gly-tyr-ala)^1 -somatostatin” (American Home Products Corporation, priority 1975, dated 1976)

System: growth hormone present in the plasma
Experiment: In vivo growth hormone in plasma of Nembutal-treated rats by radioimmunoassay
Details: for growth hormone per milliliter of plasma (average): 500 micrograms per kilogram, blood sampled 15 minutes after administration, p<0.01
Protocol: The in vivo activity of the heptadecapeptide of this invention was established by injecting Nembutal intraperitoneally into rats weighing between 200 to 250 grams in an amount of 50 milligrams per kilogram body weight. After five minutes, the heptadecapeptide of this invention was administered to the rats in a dose of 500 micrograms per kilogram body weight from a solution made from three milligrams of the heptadecapeptide,1.2 milliliters of water and 4.8 milliliters of polyethylene glycol (PEG 400). The rats blood was sampled 15 minutes after administration of the heptadecapeptide and the amount of growth hormone present in the plasma was determined by radioimmunoassay.

## C[C@H](NC(=O)[C@H](Cc1ccc(O)cc1)NC(=O)CNC(=O)CN)C(=O)NCC(=O)N[C@H]1CSSC[C@@H](C(=O)O)NC(=O)[C@H](CO)NC(=O)[C@H]([C@@H](C)O)NC(=O)[C@H](Cc2ccccc2)NC(=O)[C@H]([C@@H](C)O)NC(=O)[C@H](CCCCN)NC(=O)[C@H](Cc2c[nH]c3ccccc23)NC(=O)[C@H](Cc2ccccc2)NC(=O)[C@H](Cc2ccccc2)NC(=O)[C@H](CC(N)=O)NC(=O)[C@H](CCCCN)NC1=O [heptadecapeptide, Glycyl-glycyl-L-tyrosyl-L-alanyl-glycyl-L-cysteinyl-L-lysyl-L-asparaginyl-L-phenylalanyl-L-phenylalanyl-L-tryptophyl-L-lysyl-L-threonyl-L-phenylalanyl-L-threonyl-L-seryl-L-cysteine[6-17 cyclic disulfide]]
Another experiment, twelve rats for control and testing, control 66 ± 10
  growth hormone per milliliter of plasma (average): 21 ± 7 nanograms growth hormone per milliliter of plasma
Comparison with somatostatin, in words
  activity in reducing growth hormone concentrations in blood plasma compared with somatostatin: exceeds the activity of somatostatin
First determination, eight treated rats, Nembutal 50 mg/kg i.p., control 86 ± 15
  growth hormone per milliliter of plasma (average): 9 ± 4 nanograms growth hormone per milliliter of plasma
